Source: patent US7825114B2, “Substituted aminopyrazolopyridines and salts thereof, pharmaceutical compositions comprising same, methods of preparing same and uses of same” (Bayer Schering Pharma AG, priority 2006, dated 2010)

Experiments:
[1] = target: T1, human c-kit (Homo sapiens, UniProt P10721); test: cKIT-Kinase HTRF-Assay (assay 4); assay type: biochemical; settings: for IC50: GST-tagged kinase domain of human c-kit, 10 μM ATP; for Selectivity vs. cKit: IC50 assay 4/IC50 assay 2
T1 construct: GST-tagged recombinant kinase domain of the human c-kit; GST; host or cells: SF-9 insect cells
Protocol: Assay 4: cKIT-Kinase HTRF-Assay
c-Kit-inhibitory activity of compounds of the present invention was quantified employing the c-kit HTRF assay as described in the following paragraphs. GST-tagged recombinant kinase domain of the human c-kit expressed in SF-9 cells was used as kinase. As substrate for the kinase reaction biotinylated poly-(Glu,Tyr) (Cis biointernational, France) was used.
c-Kit was incubated for 30 min at 22° C. in the presence of different concentrations of test compounds in 5 μl assay buffer [50 mM Hepes/NaOH pH 7.0, 1 mM MgCl2, 5 mM MnCl2, 1.0 mM dithiothreitol, 0.1 mM sodium ortho-vanadate, 10 μM adenosine-tri-phosphate (ATP), 1.3 μg/ml substrate, 0.001% (v/v) Nonidet-P40 (Sigma), 1% (v/v) dimethylsulfoxide]. The concentration of c-kit was adjusted depending of the activity of the enzyme lot and was chosen appropriate to have the assay in the linear range. The reaction was stopped by the addition of 5 μl of a solution of HTRF detection reagents (0.1 μM streptavidine-XLent and 1 nM PT66-Eu-Chelate, an europium-chelate labelled anti-phospho-tyrosine antibody from Perkin Elmer) in an aqueous EDTA-solution (80 mM EDTA, 0.2% (w/v) bovine serum albumin in 50 mM HEPES/NaOH pH 7.0).
(§1) The resulting mixture was incubated 1 h at 22° C. to allow the binding of the biotinylated phosphorylated peptide to the streptavidine-XLent and the PT66-Eu-Chelate. Subsequently the amount of phosphorylated substrate was evaluated by measurement of the resonance energy transfer from the PT66-Eu-Chelate to the streptavidine-XLent. Therefore, the fluorescence emissions at 620 nm and 665 nm after excitation at 350 nm was measured in a HTRF reader, e.g. a Rubystar (BMG Labtechnologies, Offenburg, Germany) or a Viewlux (Perkin-Elmer). The ratio of the emissions at 665 nm and at 622 nm was taken as the measure for the amount of phosphorylated substrate.

[2] = target: T2, Tie2 (Homo sapiens, UniProt Q02763); test: Tie2 ELISA assay (assay 1): cellular Tie2 autophosphorylation; assay type: cell-based; parameters: expressed in transfected cells; host or cells: CHO (DHFR-deficient), stably transfected; settings: CHO cells stably transfected with Tie2, stimulated by angiopoietin-2; Tie2 autophosphorylation by sandwich-ELISA; read-out: Tie 2 activity (assay 1)
Protocol: Assay 1: Tie2 ELISA Assay
Cellular activity of compounds of the present invention as inhibitors of Tie2 kinase activity was measured employing a Tie2 ELISA assay as described in the following paragraphs. Herein CHO cell-cultures, which are stably transfected by known techniques with Tie2 using DHFR deficiency as selection marker, are stimulated by angiopoietin-2. The specific autophosphorylation of Tie2 receptors is quantified with a sandwich-ELISA using anti-Tie2 antibodies for catch and anti-phosphotyrosine antibodies coupled to HRP for detection. […]
Target sequence in this assay (Q02763 23-1124): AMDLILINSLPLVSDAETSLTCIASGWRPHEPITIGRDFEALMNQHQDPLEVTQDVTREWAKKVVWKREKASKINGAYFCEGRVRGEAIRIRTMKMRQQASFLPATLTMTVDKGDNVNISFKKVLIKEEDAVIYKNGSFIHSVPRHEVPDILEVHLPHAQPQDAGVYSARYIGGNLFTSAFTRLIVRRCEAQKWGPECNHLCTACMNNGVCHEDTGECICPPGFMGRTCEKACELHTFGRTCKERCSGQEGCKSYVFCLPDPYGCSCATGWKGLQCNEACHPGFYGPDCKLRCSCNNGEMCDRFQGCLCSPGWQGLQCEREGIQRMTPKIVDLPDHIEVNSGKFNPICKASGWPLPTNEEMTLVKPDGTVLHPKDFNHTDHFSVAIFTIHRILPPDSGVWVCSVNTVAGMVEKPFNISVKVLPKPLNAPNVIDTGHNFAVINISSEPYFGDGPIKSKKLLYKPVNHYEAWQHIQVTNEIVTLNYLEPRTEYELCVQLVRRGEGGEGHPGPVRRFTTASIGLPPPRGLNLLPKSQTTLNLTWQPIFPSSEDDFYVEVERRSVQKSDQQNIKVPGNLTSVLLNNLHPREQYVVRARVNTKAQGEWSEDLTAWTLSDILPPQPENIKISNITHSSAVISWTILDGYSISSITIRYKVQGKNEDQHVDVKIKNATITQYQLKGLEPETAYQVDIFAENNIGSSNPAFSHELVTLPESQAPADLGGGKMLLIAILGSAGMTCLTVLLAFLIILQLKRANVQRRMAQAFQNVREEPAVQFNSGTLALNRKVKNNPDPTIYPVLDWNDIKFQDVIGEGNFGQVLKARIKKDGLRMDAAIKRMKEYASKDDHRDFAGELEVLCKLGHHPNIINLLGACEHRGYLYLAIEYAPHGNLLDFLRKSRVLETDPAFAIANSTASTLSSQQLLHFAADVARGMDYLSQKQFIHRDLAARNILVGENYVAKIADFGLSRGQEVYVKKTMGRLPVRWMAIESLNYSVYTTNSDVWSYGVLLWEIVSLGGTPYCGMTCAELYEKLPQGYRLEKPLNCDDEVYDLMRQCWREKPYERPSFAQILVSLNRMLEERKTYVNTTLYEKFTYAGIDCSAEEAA

[3] = target: T2, Tie2; test: Tie-2-Kinase HTRF-Assay without kinase preactivation (assay 2); assay type: biochemical; parameters: A recombinant fusion protein of GST and the intracellular domains of Tie-2; GST; made in house; host or cells: insect cells (Hi-5); settings: GST-Tie-2 intracellular domains, no preactivation, 10 μM ATP
Excerpt: Assay 2: Tie-2-Kinase HTRF-Assay without Kinase Preactivation
Tie2-inhibitory activity of compounds of the present invention was quantified employing two Tie2 HTRF assay as described in the following paragraphs.
A recombinant fusion protein of GST and the intracellular domains of Tie-2, expressed in insect cells (Hi-5) and purified by Glutathion-Sepharose affinity chromatography was used as kinase. Alternatively, commercially available GST-Tie2-fusion protein (Upstate Biotechnology, Dundee, Scotland) can be used As substrate for the kinase reaction the biotinylated peptide biotin-Ahx-[…] (C-terminus in amid form) was used which can be purchased e.g. from the company Biosynthan GmbH (Berlin-Buch, Germany). Detection of phosphorylated product is achieved specifically by a trimeric detection complex consisting of the phosphorylated substrate, streptavidin-XLent (SA-XLent) which binds to biotin, and Europium Cryptate-labeled anti-phosphotyrosine antibody PT66 which binds to phosphorylated tyrosine.
The reaction was stopped by the addition of 5 μl of an aqueous buffer (25 mM Hepes/NaOH pH 7.5, 0.28% (w/v) bovine serum albumin) containing EDTA (90 mM) and the HTRF (Homogeneous Time Resolved Fluorescence) detection reagents streptavidine-XLent (0.2 μM, from Cis Biointernational, Marcoule, France) and PT66-Eu-Chelate (0.3 ng/μl; a europium-chelate labelled anti-phospho-tyrosine antibody from Perkin Elmer).
as §1, with “substrate peptide” for “substrate”, “substrate peptide.” for “substrate.”
Target sequence in this assay (Q02763 770-1124 limits assumed): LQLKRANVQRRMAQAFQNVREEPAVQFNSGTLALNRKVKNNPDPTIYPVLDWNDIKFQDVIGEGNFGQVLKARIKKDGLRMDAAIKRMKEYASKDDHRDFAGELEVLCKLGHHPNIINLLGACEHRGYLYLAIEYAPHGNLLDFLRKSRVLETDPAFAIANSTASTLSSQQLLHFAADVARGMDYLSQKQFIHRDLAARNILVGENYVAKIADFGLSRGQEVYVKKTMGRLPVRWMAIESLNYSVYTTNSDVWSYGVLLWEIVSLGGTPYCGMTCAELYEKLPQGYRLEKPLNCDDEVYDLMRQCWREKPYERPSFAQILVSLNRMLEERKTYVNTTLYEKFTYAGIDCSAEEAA

T1 sequence (P10721 589-937 limits assumed): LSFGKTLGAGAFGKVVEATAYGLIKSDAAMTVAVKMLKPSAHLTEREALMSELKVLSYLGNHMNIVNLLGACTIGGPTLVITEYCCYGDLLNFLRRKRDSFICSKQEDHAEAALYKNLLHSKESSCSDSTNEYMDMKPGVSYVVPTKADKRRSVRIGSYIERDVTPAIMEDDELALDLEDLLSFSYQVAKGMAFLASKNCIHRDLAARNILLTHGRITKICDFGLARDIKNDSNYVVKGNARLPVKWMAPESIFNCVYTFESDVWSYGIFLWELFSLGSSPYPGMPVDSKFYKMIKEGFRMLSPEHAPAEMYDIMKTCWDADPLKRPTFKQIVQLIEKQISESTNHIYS

Q: With `CC(C)NC(=O)C1(c2cc(-c3ccc(NC(=O)Nc4cccc(C(F)(F)F)c4)cc3)c3c(N)nn(C)c3n2)CC1` [Example 1.6, 1-(3-Amino-1-methyl-4-{4-[3-(3-trifluoromethyl-phenyl)-ureido]-phenyl}-1H-pyrazolo[3,4-b]pyridin-6-yl)-cyclopropanecarboxylic acid isopropyl-amide] as the molecule, how does the IC50 [1] read?
A: 1000 to 10000 nM

Q: What about the “Selectivity vs. cKit” value [1] of the same molecule?
A: >100

Q: What about the IC50 [2] of the same molecule?
A: ≤ 100 nM

Q: And the IC50 [3]?
A: ≤ 100 nM

Q: How did the IC50 [1] turn out when `Cn1nc(N)c2c(-c3ccc(NC(=O)Nc4cccc(C(F)(F)F)c4)cc3)cc(C3CCCCC3)nc21` [Example 7.1, 1-[4-(3-Amino-6-cyclohexyl-1-methyl-1H-pyrazolo[3,4-b]pyridin-4-yl)-phenyl]-3-(3-trifluoromethyl-phenyl)-urea] was run?
A: 100 to 1000 nM

Q: What about the “Selectivity vs. cKit” value [1] of the same molecule?
A: 9

Q: What about the IC50 [2] of the same molecule?
A: ≤ 100 nM

Q: What about the IC50 [3] of the same molecule?
A: ≤ 100 nM

Q: Which IC50 [1] does the source give for `CN(C)C(=O)C[C@@H]1C[C@H](c2cc(-c3ccc(NC(=O)Nc4cccc(C(F)(F)F)c4)cc3)c3c(N)nn(C)c3n2)C1(C)C` [Example 8.4, 2-[3-(3-Amino-1-methyl-4-{4-[3-(3-trifluoromethyl-phenyl)-ureido]-phenyl}-1H-pyrazolo[3,4-b]pyridin-6-yl)-2,2-dimethyl-cyclobutyl]-N,N-dimethyl-acetamide] here?
A: 1000 to 10000 nM

Q: What about the “Selectivity vs. cKit” value [1] of the same molecule?
A: 19

Q: And the IC50 [3]?
A: ≤ 100 nM

Q: For `Nc1n[nH]c2nccc(-c3ccc(NC(=O)Nc4cccc(C(F)(F)F)c4)cc3)c12` [PA2, 1-[4-(3-Amino-1H-pyrazolo[3,4-b]pyridin-4-yl)-phenyl]-3-(3-trifluoromethyl-phenyl)-urea, reference compound], which IC50 [1] is on record?
A: ≤ 100 nM

Q: And the “Selectivity vs. cKit” value [1]?
A: 0.67

Q: What about the IC50 [2] of the same molecule?
A: ≤ 100 nM

Q: What about the IC50 [3] of the same molecule?
A: ≤ 100 nM

Q: How did the IC50 [1] turn out when `Cn1nc(N)c2c(-c3ccc(NC(=O)Nc4cccc(C(F)(F)F)c4)cc3)cc(C3(C(=O)NCCO)CC3)nc21` [Example 1.14, 1-(3-Amino-1-methyl-4-{4-[3-(3-trifluoromethyl-phenyl)-ureido]-phenyl}-1H-pyrazolo[3,4-b]pyridin-6-yl)-cyclopropanecarboxylic acid (2-hydroxy-ethyl)-amide] was run?
A: 100 to 1000 nM

Q: What about the “Selectivity vs. cKit” value [1] of the same molecule?
A: 11

Q: And the IC50 [2]?
A: 100 to 1000 nM

Q: What about the IC50 [3] of the same molecule?
A: ≤ 100 nM

Q: With `Cc1ccc(F)c(NC(=O)Nc2ccc(-c3ccnc4[nH]nc(N)c34)cc2)c1` [PA3, 1-[4-(3-Amino-1H-pyrazolo[3,4-b]pyridin-4-yl)-phenyl]-3-(2-fluoro-5-methyl-phenyl)-urea, reference compound] as the molecule, how does the IC50 [1] read?
A: ≤ 100 nM

Q: What about the “Selectivity vs. cKit” value [1] of the same molecule?
A: 0.26

Q: What about the IC50 [2] of the same molecule?
A: 100 to 1000 nM

Q: What about the IC50 [3] of the same molecule?
A: ≤ 100 nM

Q: How did the IC50 [1] turn out when `CNC(=O)C1(c2cc(-c3ccc(NC(=O)Nc4cccc(C(F)(F)F)c4)cc3)c3c(N)nn(C)c3n2)CC1` [Example 1.4, 1-(3-Amino-1-methyl-4-{4-[3-(3-trifluoromethyl-phenyl)-ureido]-phenyl}-1H-pyrazolo[3,4-b]pyridin-6-yl)-cyclopropanecarboxylic acid methylamide] was run?
A: 100 to 1000 nM

Q: And the “Selectivity vs. cKit” value [1]?
A: 9

Q: And the IC50 [2]?
A: 100 to 1000 nM

Q: What about the IC50 [3] of the same molecule?
A: ≤ 100 nM

Q: `Cn1nc(N)c2c(-c3ccc(NC(=O)Nc4ccccc4)cc3)ccnc21` [PA6, 1-[4-(3-Amino-1-methyl-1H-pyrazolo[3,4-b]pyridin-4-yl)-phenyl]-3-phenyl-urea, reference compound] was tested. Which IC50 [1] did it give?
A: ≤ 100 nM

Q: What about the “Selectivity vs. cKit” value [1] of the same molecule?
A: 0.06

Q: What about the IC50 [2] of the same molecule?
A: 1000 to 10000 nM

Q: What about the IC50 [3] of the same molecule?
A: 1000 to 10000 nM

Q: Which results are given for `COC(=O)C[C@@H]1C[C@H](c2cc(-c3ccc(NC(=O)Nc4cccc(C(F)(F)F)c4)cc3)c3c(N)nn(C)c3n2)C1(C)C` [Example 8.2, [3-(3-Amino-1-methyl-4-{4-[3-(3-trifluoromethyl-phenyl)-ureido]-phenyl}-1H-pyrazolo[3,4-b]pyridin-6-yl)-2,2-dimethyl-cyclobutyl]-acetic acid methyl ester]?
A: IC50 [1]: 1000 to 10000 nM; Selectivity vs. cKit [1]: 30; IC50 [2]: ≤ 100 nM; IC50 [3]: ≤ 100 nM

Q: Which IC50 [1] does the source give for `CCOC(=O)C1(c2cc(-c3ccc(NC(=O)Nc4ccccc4)cc3)c3c(N)nn(C)c3n2)CC1` [Example 1.1, 1-{3-Amino-1-methyl-4-[4-(3-phenyl-ureido)-phenyl]-1H-pyra-zolo[3,4-b]pyridin-6-yl}-cyclopropanecarboxylic acid ethyl ester] here?
A: 1000 to 10000 nM

Q: What about the “Selectivity vs. cKit” value [1] of the same molecule?
A: 4

Q: What about the IC50 [2] of the same molecule?
A: 100 to 1000 nM

Q: And the IC50 [3]?
A: 100 to 1000 nM

Q: `Cn1nc(N)c2c(-c3ccc(NC(=O)Nc4cccc(C(F)(F)F)c4)cc3)cc(C3(C(=O)NC4CC4)CC3)nc21` [Example 1.12, 1-(3-Amino-1-methyl-4-{4-[3-(3-trifluoromethyl-phenyl)-ureido]-phenyl}-1H-pyrazolo[3,4-b]pyridin-6-yl)-cyclopropanecarboxylic acid cyclopropylamide] was tested. Which IC50 [1] did it give?
A: 1000 to 10000 nM

Q: And the “Selectivity vs. cKit” value [1]?
A: >100

Q: And the IC50 [2]?
A: ≤ 100 nM

Q: And the IC50 [3]?
A: ≤ 100 nM

Q: With `CN(C)CCNC(=O)C1(c2cc(-c3ccc(NC(=O)Nc4cccc(C(F)(F)F)c4)cc3)c3c(N)nn(C)c3n2)CC1` [Example 1.9, 1-(3-Amino-1-methyl-4-{4-[3-(3-trifluoromethyl-phenyl)-ureido]-phenyl}-1H-pyrazolo[3,4-b]pyridin-6-yl)-cyclopropanecarboxylic acid (2-dimethylamino-ethyl)-amide] as the molecule, how does the IC50 [1] read?
A: 100 to 1000 nM

Q: What about the “Selectivity vs. cKit” value [1] of the same molecule?
A: 10

Q: And the IC50 [2]?
A: 100 to 1000 nM

Q: And the IC50 [3]?
A: ≤ 100 nM

Q: For `CCN(CC)C(=O)C1(c2cc(-c3ccc(NC(=O)Nc4cccc(C(F)(F)F)c4)cc3)c3c(N)nn(C)c3n2)CC1` [Example 1.11, 1-(3-Amino-1-methyl-4-{4-[3-(3-trifluoromethyl-phenyl)-ureido]-phenyl}-1H-pyrazolo[3,4-b]pyridin-6-yl)-cyclopropanecarboxylic acid diethylamide], which IC50 [1] is on record?
A: 1000 to 10000 nM

Q: What about the “Selectivity vs. cKit” value [1] of the same molecule?
A: 24

Q: And the IC50 [2]?
A: ≤ 100 nM

Q: What about the IC50 [3] of the same molecule?
A: ≤ 100 nM

Q: How did the IC50 [1] turn out when `Cc1ccc(F)c(NC(=O)Nc2ccc(-c3cc(C4(C(=O)N(C)C)CC4)nc4c3c(N)nn4C)cc2)c1` [Example 4.4, 1-(3-Amino-4-{4-[3-(2-fluoro-5-methyl-phenyl)-ureido]-phenyl}-1-methyl-1H-pyrazolo[3,4-b]pyridin-6-yl)-cyclopropanecarboxylic acid dimethylamide] was run?
A: 1000 to 10000 nM

Q: What about the “Selectivity vs. cKit” value [1] of the same molecule?
A: 15

Q: What about the IC50 [2] of the same molecule?
A: ≤ 100 nM

Q: And the IC50 [3]?
A: ≤ 100 nM

Q: Which results are given for `Cc1ccc(F)c(NC(=O)Nc2ccc(-c3cc(C4(C(=O)N5CCCC5)CC4)nc4c3c(N)nn4C)cc2)c1` [Example 4.3]?
A: IC50 [1]: 1000 to 10000 nM; Selectivity vs. cKit [1]: >100; IC50 [2]: ≤ 100 nM; IC50 [3]: ≤ 100 nM
